# Results reported in patent US20090215752A1, “Compounds, preparation and therapeutic use thereof” (priority 2005, published 2009).
# Experiments:
# PDE2 = target: T1, PDE2 (Homo sapiens, UniProt O00408); experiment: Inhibition of PDE2 (radioenzymatic phosphodiesterase assay); type: biochemical; conditions: Table 1, 1 μM cyclic AMP
# T1 construct: PDE2 was isolated from human platelets, provided by Etablissement Français du Sang-Alsace; tissue Etablissement Français du Sang-Alsace; host or cells: human platelets
# T1 sequence (O00408 whole entry): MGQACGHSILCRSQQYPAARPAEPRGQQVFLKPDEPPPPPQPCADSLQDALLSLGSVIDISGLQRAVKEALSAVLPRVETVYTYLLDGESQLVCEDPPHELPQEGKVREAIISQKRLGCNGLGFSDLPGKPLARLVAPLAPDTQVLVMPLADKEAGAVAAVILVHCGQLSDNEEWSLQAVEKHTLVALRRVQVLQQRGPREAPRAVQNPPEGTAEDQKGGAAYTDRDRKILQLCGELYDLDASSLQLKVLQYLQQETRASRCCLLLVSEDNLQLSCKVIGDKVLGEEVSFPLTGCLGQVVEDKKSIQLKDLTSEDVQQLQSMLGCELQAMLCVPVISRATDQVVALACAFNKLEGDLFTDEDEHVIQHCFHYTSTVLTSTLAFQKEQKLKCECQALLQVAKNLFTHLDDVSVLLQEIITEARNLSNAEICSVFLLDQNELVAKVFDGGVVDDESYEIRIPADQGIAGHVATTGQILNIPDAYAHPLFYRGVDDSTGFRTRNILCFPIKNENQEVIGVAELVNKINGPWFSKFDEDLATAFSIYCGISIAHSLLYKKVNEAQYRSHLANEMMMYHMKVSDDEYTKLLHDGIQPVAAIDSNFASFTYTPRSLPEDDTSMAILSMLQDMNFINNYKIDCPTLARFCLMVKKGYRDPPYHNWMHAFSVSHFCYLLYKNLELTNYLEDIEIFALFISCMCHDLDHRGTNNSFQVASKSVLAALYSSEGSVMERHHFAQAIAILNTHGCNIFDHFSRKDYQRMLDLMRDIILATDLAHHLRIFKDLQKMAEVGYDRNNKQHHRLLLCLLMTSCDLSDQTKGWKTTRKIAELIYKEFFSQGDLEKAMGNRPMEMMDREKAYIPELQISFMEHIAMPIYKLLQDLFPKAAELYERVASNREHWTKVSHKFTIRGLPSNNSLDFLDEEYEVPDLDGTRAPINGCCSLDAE
# In short: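 PDE2 isolated from human platelets was assayed radioenzymatically with 1 μM [3H]-cAMP substrate, limiting hydrolysis to ≤15%, in duplicate. Product was converted to nucleoside by nucleotidase, separated by anion exchange and counted by scintillation; IC50 from nonlinear regression of hydrolysis rates.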
# 5-HT transporter = target: T2, 5-HT transporter (Homo sapiens, UniProt P31645); experiment: Serotonergic transporter binding ([3H]imipramine); conditions: [3H]imipramine 2 nM, HEK-293 recombinant, read-out: percentage inhibition at 10 μM of control specific binding to the serotonergic transporter
# T2 construct: expressed in transfected cells; host or cells: HEK-293
# T2 sequence (P31645 whole entry): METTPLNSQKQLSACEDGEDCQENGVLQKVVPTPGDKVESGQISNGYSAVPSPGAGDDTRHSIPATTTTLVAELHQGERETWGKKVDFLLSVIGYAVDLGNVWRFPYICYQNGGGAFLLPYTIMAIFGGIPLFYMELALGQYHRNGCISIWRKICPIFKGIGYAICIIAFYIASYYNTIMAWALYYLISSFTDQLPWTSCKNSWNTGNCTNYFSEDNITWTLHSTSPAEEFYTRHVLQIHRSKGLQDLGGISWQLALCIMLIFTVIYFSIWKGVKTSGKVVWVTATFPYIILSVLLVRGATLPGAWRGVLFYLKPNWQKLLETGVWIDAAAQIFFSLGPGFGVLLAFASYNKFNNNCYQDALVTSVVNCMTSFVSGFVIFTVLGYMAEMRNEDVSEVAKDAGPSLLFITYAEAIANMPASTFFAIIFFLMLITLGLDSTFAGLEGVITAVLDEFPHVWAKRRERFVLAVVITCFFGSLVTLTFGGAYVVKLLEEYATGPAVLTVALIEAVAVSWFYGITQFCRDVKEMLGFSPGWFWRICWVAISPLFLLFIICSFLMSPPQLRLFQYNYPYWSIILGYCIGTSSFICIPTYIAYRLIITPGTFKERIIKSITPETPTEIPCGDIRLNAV
# Description: The serotonergic 5-HT transporter was isolated from human recombinant HEK-293 cells according to the method described by Tatsumi et al. (1997), Pharmacological profile of antidepressants and related compounds at human monoamine transporters, Eur. J. Pharmacol., 340: 249-258.
# Serotonergic transporter binding was determined by a radioligand method using tritium-labelled imipramine (2 nM) as substrate (Tatsumi et al., 1999). Ligand radioactivity was determined by liquid scintillation counting. Ligand incubations were carried out for thirty minutes at 22° C. The experiment was conducted in duplicate.
# The specific ligand binding to the serotonergic transporter was defined as the difference between the total binding and the non specific binding determined in presence of an excess of unlabelled ligand. The results obtained are presented in Table 3 hereinbelow and are expressed as percent of control specific binding and as a percent inhibition of control specific binding obtained in presence of 10 μM of substance.
# [1] = test system: σ (non-selective) receptors; experiment: Sigma receptors binding, non-selective ([3H]DTG); conditions: [3H]DTG 8 nM, rat cerebral cortex
# Description: The sigma receptors were isolated from rat cerebral cortex according to the method described in Shirayama et al., 1993, p-Chlorophenylalanine-reversible reduction of s binding sites by chronic imipramine treatment in rat brain, Eur. J. Pharmacol., 237: 117-126.
# Sigma 1 receptor binding was determined by a radioligand method using tritium-labelled DTG (8 nM) as substrate (Shirayama et al., 1993). Ligand radioactivity was determined by liquid scintillation counting. For sigma binding evaluation, ligand incubations were carried out for one hundred twenty minutes at 22° C. The experiments were conducted in duplicate.
# The specific ligand binding to the sigma receptors was defined as the difference between the total binding and the non specific binding determined in presence of an excess of unlabelled ligand. […]
# σ receptors = experiment: Isolated organ bioassay, field-stimulated vas deferens: test for agonist activity; parameters: species or system guinea pig; conditions: mean, n=2
# Description: Segments of guinea pig vas deferens were suspended in 20-ml organ baths containing an oxygenated (95% O2 and 5% CO2) and pre-warmed (37° C.) physiological salt solution of the following composition (in mM): NaCl 118.0, KCl 4.7, MgSO4 1.2, CaCl2 2.5, KH2PO4 1.2, NaHCO3 25.0 and glucose 11.0 (pH 7.4). Yohimbine (1 μM), (−) sulpiride (1 μM), atropine (1 μM) and naloxone (1 μM) were also present throughout the experiments to block the α2-adrenergic, dopamine D2, muscarinic and opioid receptors, respectively. The tissues were connected to force transducers for isometric tension recordings. They were stretched to a resting tension of 0.5 g, allowed to equilibrate for at least 30 min during which time they were washed repeatedly and the tension readjusted. Thereafter, they were stimulated electrically using a constant current stimulator.
# The tissues were exposed to a submaximal concentration of the reference agonist (+) SKF-10047 (100 μM) to verify responsiveness and to obtain a control response. Following washings and recovery of the twitch contraction amplitude, the tissues were exposed to increasing concentrations of substance or the same agonist. The different concentrations were added cumulatively and each was left in contact with the tissues until a stable response was obtained or for a maximum of 15 min. If an agonist-like response (enhancement of twitch contractions) was obtained, the reference antagonist rimcazole (10 μM) was tested against the highest concentration of substance to confirm the involvement of the σ receptors in this response.
# The parameter measured was the maximum change in the twitch contraction amplitude induced by each compound concentration. The results are expressed as a percent variation of the control twitch contraction amplitude (mean values). The effects of substance tested at 1.0 10^−6 M, 3.0 10^−6 M and 1.0 10^−5 M for agonist and antagonist activities at the σ receptors in the guinea pig vas deferens bioassay are summarized in Tables 6-7 where those of the reference compounds are also reported.
compound,measurement,setting,value
"COc1cc2c(c(OC)c1-c1ccccc1)C(c1cccc(C(N)=O)c1)=NCC(=O)N2C [Compound 17, 3-(6,8-Dimethoxy-1-methyl-2-oxo-7-phenyl-2,3-dihydro-1H-benzo[e][1,4]diazepin-5-yl)-benzamide]",inhibition at 10 µM,"PDE2; 10 μM compound, read-out: PDE2 percentage inhibition at 10 μM",80%
same,IC50,"PDE2; value in square brackets, read-out: PDE2 IC50",800 nM
same,inhibition at 10 µM,5-HT transporter,98%
same,σ (non-selective) percentage inhibition at 0.1 μM,[1]; 0.1 μM,1%
same,σ (non-selective) percentage inhibition at 1 μM,[1]; 1 μM,57%
same,σ (non-selective) percentage inhibition at 10 μM,[1]; 10 μM,100%
same,"Response to the compound, variation of twitch contraction amplitude",σ receptors; 1.0 10^−5 M,+33%
same,"Response to the compound, variation of twitch contraction amplitude",σ receptors; 1.0 10^−6 M,0%
same,"Response to the compound, variation of twitch contraction amplitude",σ receptors; 3.0 10^−6 M,0%
same,Response to the highest concentration of the compound +Rimcazole (1.0 10^−5 M),σ receptors; highest compound concentration plus rimcazole 1.0 10^−5 M,−9%
